Test results from patent US20090041839A1, “PHARMACEUTICAL COMPOSITIONS FOR THE TREATMENT OF PAIN” (priority 2007, published 2009).
Like-named read-outs stand apart in the source and are kept apart here.

Key:
adenosine A1 receptors = conditions: Li et al. 2003, U.S. Pat. No. 6,248,774 and No. 6,489,356, cited from earlier work
[1] = Multiple escalating dose pharmacokinetic study of T-62 soft gelatin capsules (Example 12); format: in vivo; conditions: both sexes, human, plasma, healthy adults; for Tmax: median; for AUC(0-inf) / Cmax / AUC: po, arithmetic mean (SD); for AUC: τ = 12 hours, read-out: AUC0-τ
Experimental: A single-center, randomized, double-blind, parallel-group, placebo-controlled study of the safety, tolerability, and pharmacokinetics of escalating multiple doses of a T-62 composition in soft gelatin capsules (oral dosage form 4) in healthy adult male and female subjects was carried out.
Three cohorts of 12 subjects were enrolled for the study (19-38 years of age). Subjects in each cohort were randomly assigned in a 3:1 allocation to receive multiple doses of either T-62 (n=9) or placebo (n=3). Subjects in each cohort received study medication for a total of 6 days. Subjects in the first cohort received multiple doses of 100 mg T-62 or placebo. Subsequent cohorts of 12 new subjects each received multiple doses of placebo or a higher dose level of T-62 (i.e., 2×100 mg for the second cohort and 4×100 mg for the third cohort).
Each subject in each dosing cohort completed Screening, Baseline, Treatment, and Follow-Up Phases. The Screening Phase was conducted on an outpatient basis within 30 days, but no less than 3 days, prior to the start of the Baseline Phase. The Baseline Phase consisted of clinical research unit (CRU) admission and final qualification assessments. The Treatment Phase comprised of dosing, post-treatment safety assessments, and blood collection.
On the morning of Day 1, subjects received a single dose of study drug; no additional study drug were administered on Day 1. Twice-daily dosing (one morning dose and one evening dose) commenced on Day 2 and continue through Day 5. Subjects received a final dose of study drug on the morning of Day 6. Once subjects in each cohort had completed dosing, an additional 48 hours of blood sampling was conducted following the final dose to characterize the pharmacokinetics of T-62 at steady state. Subjects were discharged at the end of the 48-hour blood sampling (Day 8). The Follow-Up Phase occurred 2 days (but no more than 4 days) after discharge from the CRU.
For all cohorts, on Day 2 through Day 5, subjects were not allowed to eat any food beginning 1 hour prior to the morning and evening doses of study drug and until 2 hours after study drug administration. On Day 1 and Day 6, subjects fasted for a minimum of 9 hours pre-dose to 4 hours post-dose.
Blood samples for determining plasma concentrations of T-62 and pharmacokinetic parameters were obtained immediately prior to dosing on Day 1 and at regular intervals post-dosing over 12 hours in each treatment cohort. On Days 2-5, blood samples for pharmacokinetic analysis were collected each day prior to the morning and evening doses of study drug. Once subjects in each cohort had completed dosing on Day 6, an additional 48 hours of plasma sampling were conducted following the final dose of study drug to characterize the pharmacokinetics of T-62 at steady state.

[2] = 200 mg, Day 1, single dose 2 × 100 mg (oral dosage form 4), n = 9
[3] = 400 mg, Day 1, single dose 4 × 100 mg (oral dosage form 4), n = 9
[4] = 100 mg, Day 1, single dose 100 mg (oral dosage form 4), n = 8
[5] = 100 mg, Steady state (Day 6), 100 mg BID (oral dosage form 4), n = 8
[6] = 200 mg, Steady state (Day 6), 2 × 100 mg BID (oral dosage form 4), n = 9
[7] = 400 mg, Steady state (Day 6), 4 × 100 mg BID (oral dosage form 4), n = 9

Nc1sc2c(c1C(=O)c1ccc(Cl)cc1)CCCC2 [T-62, (2-amino-4,5,6,7-tetrahydrobenzo[b]thiophen-3-yl)(4-chlorophenyl)-methanone]
Adverse side effects (adenosine A1 receptors; compared with administration of adenosine): devoid of the adverse side effects associated with administration of adenosine
Effect on inflammatory and neuropathic pain (adenosine A1 receptors; orally effective): reduce inflammatory and neuropathic pain
Tmax [1, 2]: 1 h
Tmax [1, 3]: 2 h
AUC(0-inf) [1, 4]: 96.9 ng·h/mL
Cmax [1, 4]: 28.8 ng/mL
AUC [1, 4]: 89.5 ng·h/mL
AUC(0-inf) [1, 5]: 407 ng·h/mL
Cmax [1, 5]: 55.9 ng/mL
AUC [1, 5]: 197 ng·h/mL
AUC(0-inf) [1, 2]: 254 ng·h/mL
Cmax [1, 2]: 60.7 ng/mL
AUC [1, 2]: 211 ng·h/mL
AUC(0-inf) [1, 6]: 995 ng·h/mL
Cmax [1, 6]: 107 ng/mL
AUC [1, 6]: 450 ng·h/mL
AUC(0-inf) [1, 3]: 496 ng·h/mL
Cmax [1, 3]: 71.4 ng/mL
AUC [1, 3]: 399 ng·h/mL
AUC(0-inf) [1, 7]: 2210 ng·h/mL
Cmax [1, 7]: 179 ng/mL
AUC [1, 7]: 958 ng·h/mL
Tmax ([1]; Day 1, single dose 100 mg (oral dosage form 4), n = 8): 1 h
